Experimental data as given in publication PMC12510601, “Transcriptomic analysis reveals that pyruvate kinase potentially plays a key role in the differentiation of Spirometra mansoni proglottids by regulating the glycolysis pathway” (PLOS Neglected Tropical Diseases, 2025).

System: rSmPK1 (recombinant SmPK1)
Test: […],4-dinitrophenylhydrazine pyruvate assay, Michaelis-Menten / Lineweaver-Burk
Type: biochemical, Spirometra mansoni
Settings: pH 8.0, 37 °C

Row | SMILES | Km (varied ADP with PEP) | Km (varied PEP with ADP)
1 | Nc1ncnc2c1ncn2[C@@H]1O[C@H](COP(=O)(O)OP(=O)(O)O)[C@@H](O)[C@H]1O [ADP] | 540 µM | 
2 | C=C(OP(=O)(O)O)C(=O)O [PEP] |  | 1270 µM
